For one assay, the system named is PBMCs. Nature of the assay: Cytostim-induced cytokine production in PBMCs. It is filed as cell-based. Particulars: Homo sapiens, PBMC. The method, then:
As a means of assessing PI3Kδ-dependent cell function, cytostim-induced IL-4, IL-5, IL-13 and IFNγ production in PBMCs were evaluated by Luminex multiplex assay. All healthy volunteers were recruited by Quintiles Limited (London, UK), and blood samples were delivered to Respivert Ltd. This study was approved by the local Ethics Committee, and all subjects gave written informed consent.
PBMC suspensions (200 μL; 2×10^6 cells/mL) were added to a 96-well plate. Cells were treated with either test compounds in neat DMSO or DMSO as vehicle (2 μL) and incubated at RT for 1 hr. Cytostim (Miltentyi Biotec, Surrey, UK) was introduced at a ratio of 1:50 and the cells were incubated for 20 hr (37° C.; 5% CO2). Plates were spun at 500×g for 5 min and the supernatant collected. A high sensitivity cytokine magnetic bead kit (#HSCYTMAG-60SK, Millipore, Watford, UK) was used to measure the four analytes (IL-4, IL-5, IL-13 and IFNγ) by Luminex as follows: The magnetic antibody beads were multiplexed and incubated in a 96-well plate with standard, media only or sample (50 μL) overnight with shaking at 4° C. After washing twice with Millipore wash buffer provided in the kit using a magnetic plate washer, the beads were incubated for 1 hr with detection antibody (50 μL) with shaking at RT. A streptavidin-phycoerythrin solution provided in the kit was added for 30 min with shaking at RT. After washing, the beads were re-suspended in sheath fluid (150 μL) and analysed immediately. The Luminex system was set up to count 50 beads and the amount of each analyte in the supernatant was calculated against a standard curve. The IC50 values were determined from concentration-inhibition curves using XL-Fit (IDBS, Guildford, UK)

For assay [1], the system named is PI3K δ (Akt phosphorylation in d-U937 cells). Nature of the assay: PI3K δ cell based assay: H2O2-induced Akt phosphorylation in d-U937 cells. The conditions noted are these: Homo sapiens, dU937; inhibition of induced Akt phosphorylation; read-out: Cellular Activity REC50 values in d-U937 cells, H2O2 stimulus. On the procedure:
As a means of assessing PI3K δ activation in response to stimuli, the phosphorylation status of the protein, Akt, a downstream product of PI3Kδ, signaling was determined.
U937 cells, obtained from a human, leukemic, monocyte lymphoma cell line, were differentiated to macrophage-type cells by incubation with PMA (100 ng/mL) for 48 to 72 hr. Cells were then pre-incubated with either the test compound or vehicle for 2 hr and were then stimulated briefly by exposure to H2O2 (10 mM, 5-7 min) and the reaction stopped by replacing the media with 4% formaldehyde solution. […] After washing with buffer (PBS containing 0.1% Triton X-100), cells were incubated with an HRP-conjugated secondary antibody (Dako) and the resultant signal was determined colorimetrically (OD: 450 nm with a reference wavelength of 655 nm) using TMB substrate (substrate reagent pack supplied by R&D Systems, Inc.).
This reaction was stopped by the addition of H2SO4 solution (100 μL). […] After washing with buffer (PBS containing 0.1% Triton X-100) 1% SDS (100 μL) was added to each well and the plates were shaken lightly for 1 hr prior to measuring the absorbance at 595 nm (Varioskan® Flash, Thermo-Fisher Scientific). The measured OD450-655 readings were corrected for cell number by dividing the OD450-655 by the D595 readings. The ratio of pAkt signal to total Akt signal was used to quantitate the extent of PI3K δ activation. […]

The subject of another assay is THP1 cells. Nature of the assay: Chemotaxis to MCP1. The format is cell-based. Particulars: Homo sapiens, THP-1; read-out: REC50, THP1 cell chemotaxis to MCP1. On the procedure: As a means of assessing PI3K γ dependent cell function, THP1 cell chemotaxis to MCP-1 was evaluated using a 48 well-chemotaxis chamber. THP1 cells from a human leukemic monocyte lymphoma cell line, (purchased from ATCC Manassas, Va.) were maintained in RPMI 1640 (Invitrogen Ltd., Paisley, UK) with 10% FCS at 37° C. Cells were re-suspended in 0.5% BSA/RPM11640 (2×10^6 cells/mL) and incubated for 10 min at 37° C., 5% CO2. Cell suspension aliquots (500 μL) were then treated either with compounds in neat DMSO or with DMSO as vehicle (2.5 μL) for 1hr (37° C., 5% CO2).
MCP1 (50 nM) was prepared in 0.5% BSA/RPM11640. MCP1 solution (50 μL) was added to each well in the bottom plate of a 48-well chemotaxis chamber (AP48, NeuroProbe Inc., Gaithersburg, Md.). A polycarbonate membrane (8 μm) was mounted on the bottom chamber, and then the top plate was mounted on the bottom chamber and filter membrane. […]
A solution of MTT (50 μL) in 10% FCS phenol red-free RPM11640 was added to each well, and the plate was incubated for 2 hr (37° C., 5% CO2). Neat DMSO (100 μL) was added to each well to extract formazan formed from MTT and the plates were shaken lightly for 1 hr prior to measuring the absorbance at 595 nm (Varioskan® Flash, Thermo-Fisher Scientific). […] Relative EC50 values were determined from concentration-inhibition curves using XL-Fit (idbs, Guildford, UK).

Structures are written as SMILES. Like-named read-outs stand apart in the source and are kept apart here. Where only a bound is given, the exact number is not on record here.

Broadly, the IC50 is the concentration needed to halve the response being measured.

Regarding `COCCOCCOCC#Cc1cccc2nc(Cn3nc(-c4cc(O)cc(F)c4)c4c(N)ncnc43)n(Cc3ccccc3C(F)(F)F)c(=O)c12` [Compound (I), 2-((4-Amino-3-(3-fluoro-5-hydroxyphenyl)-1H-pyrazolo[3,4-d]pyrimidin-1-yl)methyl)-5-(3-(2-(2-methoxyethoxy)ethoxy)prop-1-yn-1-yl)-3-(2-(trifluoromethyl)benzyl)quinazolin-4(3H)-one], the IC50 with PBMCs (read-out: IC50, Cytostim-induced IFNγ in PBMCs) is 13.8 nM; with PBMCs (read-out: IC50, Cytostim-induced IL-4 in PBMCs), less than 1.4 nM; with PBMCs (read-out: IC50, Cytostim-induced IL-5 in PBMCs), less than 1.4 nM; with PBMCs (read-out: IC50, Cytostim-induced IL-13 in PBMCs), less than 1.4 nM. For the same compound, the results for the EC50 (in assay [1]; with THP1 cells) were 7.4 nM and 33.9 nM, respectively.

For the origin of these results see patent US20170334919A1, “2-((4-AMINO-3-(3-FLUORO-5-HYDROXYPHENYL)-1H-PYRAZOLO[3,4-D]PYRIMIDIN-1 -YL)METHYL)-3-(2-(TRIFLUORO-MET HYL)BENZYL)QUINAZOLIN-4(3H)-ONE DERIVATIVES AND THEIR USE AS PHOSPHOINOSITIDE 3-KINASE INHIBITORS” (RESPIVERT LTD., priority 2013, published 2017).
